For 13 molecules, logD results are on record in the SangsterLogP compilation.

Each structure is given as a SMILES string.

This data set is described as follows: method code SF-HPLC, from DOI: 10.1111/j.2042-7158.1987.tb06262.x, PMID: 2884287. The note with it: pH 3.0.
As for `Cn1cnc2[nH]c(=O)[nH]c(=O)c21`, the log distribution coefficient (logD) – broadly, the decadic logarithm of the distribution of all forms, ionised or not, between an organic phase and buffer at a given pH – was -0.89.
Consider `Cn1c(=O)c2[nH]c(=O)[nH]c2n(C)c1=O`, for which the pH-dependent lipophilicity (logD) was -0.52.
In turn, `Cn1c(=O)[nH]c(=O)c2[nH]c(=O)[nH]c21` showed a logD of -1.08.
The value for `Cn1c(=O)[nH]c2[nH]c(=O)n(C)c2c1=O` was -0.22; that for `Cn1c(N)c(NC=O)c(=O)n(C)c1=O` was -0.64.
For `Cn1c(=O)[nH]c2[nH]c(=O)[nH]c(=O)c21` the value was -1.18; for `CN(C=O)c1c(N)n(C)c(=O)n(C)c1=O`, -1.32; for `CN(C=O)c1c(N)n(C)c(=O)[nH]c1=O`, -1.3.
The value for `Cn1c(=O)c2c([nH]c(=O)n2C)n(C)c1=O` was -0.37; that for `CN(C=O)c1c(N)[nH]c(=O)n(C)c1=O` was -2.03.
In turn, `Cn1c(=O)[nH]c(=O)c2c1[nH]c(=O)n2C` yielded a logD of -1.33.
For `Cn1c(=O)[nH]c2[nH]c(=O)[nH]c2c1=O`, the pH-dependent lipophilicity (logD) is -0.57.
The molecule `Cn1c(=O)[nH]c2nc[nH]c2c1=O` displayed a logD of -0.27.
